Consider two compounds from PMC7517831, “Integrating Machine Learning-Based Virtual Screening With Multiple Protein Structures and Bio-Assay Evaluation for Discovery of Novel GSK3β Inhibitors” (Frontiers in Pharmacology, 2020).

Broadly, the IC50 is the point on the concentration scale where inhibition reaches its midpoint.

The assay concerns the target T1, Glycogen synthase kinase-3β (GSK3β) (Homo sapiens, UniProt P49841).
T1 construct: gene GSK3B
Description: ADP-Glo luminescent kinase assay, nine-point dose curve. The assay is classed as biochemical. A general note: ADP-Glo turns the ADP formed in a reaction into a luminescent signal.

T1 sequence (P49841 whole entry): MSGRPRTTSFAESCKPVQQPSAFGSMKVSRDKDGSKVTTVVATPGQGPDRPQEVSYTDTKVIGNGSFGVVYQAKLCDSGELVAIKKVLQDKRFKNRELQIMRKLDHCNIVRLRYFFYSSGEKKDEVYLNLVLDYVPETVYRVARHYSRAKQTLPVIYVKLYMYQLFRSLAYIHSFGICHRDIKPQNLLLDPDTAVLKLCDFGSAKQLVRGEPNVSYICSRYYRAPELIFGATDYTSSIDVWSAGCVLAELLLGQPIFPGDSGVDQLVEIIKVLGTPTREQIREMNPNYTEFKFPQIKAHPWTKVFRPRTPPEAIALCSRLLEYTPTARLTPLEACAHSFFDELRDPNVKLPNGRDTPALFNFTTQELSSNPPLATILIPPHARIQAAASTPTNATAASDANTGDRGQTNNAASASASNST

Compound `COc1cccc(-n2c(=S)sc3c(=O)[nH]c(SCC(=O)Nc4cccc(Cl)c4)nc32)c1` [Cpd22] displayed a half-maximal inhibitory concentration (IC50) of 15.5 µM.
Under `CC(C)(C)[C@H]1CCc2[nH]nc(C(=O)NC3CC3)c2C1` [Cpd49] stands 9.34 µM.
